# Source: patent publication US12708116B2, “Herbicidal compositions comprising 2,4-D” (BASF SE, priority 2023, dated 2026)
# What was measured:
# Assay in all cases: Post-emergence application in field trials
# PORPI = type: in vivo; conditions: 8 DAT; g ai/ha A-1 25, B-5 1066; height 2-8 cm; water volume 140 l/ha
# DIGSA = tested on: DIGSA
# SETVE = conditions: growth stage 21-23
# CYPES = conditions: 21 DAT, water volume 140 l/ha
# AMARE = type: in vivo, Amaranthus retroflexus; conditions: 8 DAT; g ai/ha A-1 25, B-5 1066; growth stage 19; height 10-20 cm; water volume 140 l/ha
# HORVW = conditions: growth stage 23-29, height 20-25 cm
# AMAPA = tested on: AMAPA
# GLXMA = type: in vivo, Glycine max; conditions: Example 4; 21 DAT; g ai/ha A-1 12.5, B-5 1066; growth stage 13; height 5-8 cm
# ECHCG = type: in vivo, Echinochloa crus-galli
# DATST = tested on: DATST
# AMATU = type: in vivo, Amaranthus tuberculatos; conditions: 8 DAT; g ai/ha A-1 12.5, B-5 1066; growth stage 19; height 10-20 cm; water volume 140 l/ha
# ZEAMX = conditions: growth stage 15-16
# SETVI = type: in vivo, Setaria viridis; conditions: 15 DAT; g ai/ha A-1 12.5, B-5 1066, C-10 840; growth stage 13-19; height 2-18 cm; water volume 140 l/ha
smiles,measurement,setting,value
"CCOC(=O)COc1ccccc1Oc1nc(-n2c(=O)cc(C(F)(F)F)n(C)c2=O)c(F)cc1Cl [A-1, ethyl 2-[2-[[3-chloro-5-fluoro-6-[3-methyl-2,6-dioxo-4-(trifluoromethyl)pyrimidin-1-yl]-2-pyridyl]oxy]phenoxy]acetate]",% Herbicidal activity,PORPI,90%
same,% Herbicidal activity,"DIGSA; 14 DAT, g ai/ha A-1 12.5, B-5 1066, height 2-8 cm, water volume 140 l/ha",33%
same,% Herbicidal activity,"DIGSA; 14 DAT, g ai/ha A-1 25, B-5 1066, height 2-8 cm, water volume 140 l/ha",33%
same,% Herbicidal activity,"DIGSA; 14 DAT, g ai/ha A-1 50, B-5 1066, height 2-8 cm, water volume 140 l/ha",65%
same,% Herbicidal activity,"DIGSA; 15 DAT, g ai/ha A-1 12.5, B-5 1066, C-10 840, growth stage 13-19, height 2-13 cm, water volume 140 l/ha",68%
same,% Herbicidal activity,"DIGSA; 21 DAT, g ai/ha A-1 12.5, B-5 1066, C-11 655, height 2-8 cm, water volume 140 l/ha",27%
same,% Herbicidal activity,"DIGSA; 21 DAT, g ai/ha A-1 12.5, B-5 1066, height 2-8 cm, water volume 140 l/ha",27%
same,% Herbicidal activity,"DIGSA; 21 DAT, g ai/ha A-1 25, B-5 1066, C-11 655, height 2-8 cm, water volume 140 l/ha",28%
same,% Herbicidal activity,"DIGSA; 21 DAT, g ai/ha A-1 25, B-5 1066, height 2-8 cm, water volume 140 l/ha",28%
same,% Herbicidal activity,"DIGSA; 21 DAT, g ai/ha A-1 50, B-5 1066, C-11 655, height 2-8 cm, water volume 140 l/ha",55%
same,% Herbicidal activity,"DIGSA; 21 DAT, g ai/ha A-1 50, B-5 1066, height 2-8 cm, water volume 140 l/ha",55%
same,% Herbicidal activity,"DIGSA; Example 6, 7 DAT, g ai/ha A-1 12.5, B-5 1066, C-11 400, growth stage 21-22, height 15-20 cm",35%
same,% Herbicidal activity,"DIGSA; Example 6, 21 DAT, g ai/ha A-1 12.5, B-5 1066, C-11 400, growth stage 21-22, height 15-20 cm",35%
same,% Herbicidal activity,"SETVE; Example 4, 21 DAT, g ai/ha A-1 12.5, B-5 1066, height 8-16 cm",65%
same,% Herbicidal activity,"SETVE; Example 6, 7 DAT, g ai/ha A-1 12.5, B-5 1066, C-11 400, height 10-15 cm",75%
same,% Herbicidal activity,"SETVE; Example 6, 21 DAT, g ai/ha A-1 12.5, B-5 1066, C-11 400, height 10-15 cm",55%
same,% Herbicidal activity,"CYPES; g ai/ha A-1 12.5, B-5 1066, C-11 655",20%
same,% Herbicidal activity,"CYPES; g ai/ha A-1 50, B-5 1066, C-11 655",42%
same,% Herbicidal activity,"CYPES; g ai/ha A-1 50, B-5 1066",42%
same,% Herbicidal activity,AMARE,88%
same,% Herbicidal activity,"HORVW; Example 4, 21 DAT, g ai/ha A-1 12.5, B-5 1066",60%
same,% Herbicidal activity,"HORVW; Example 5, 7 DAT, g ai/ha A-1 12.5, B-4 1066",60%
same,% Herbicidal activity,"HORVW; Example 6, 28 DAT, g ai/ha A-1 12.5, B-5 1066, C-11 400",60%
same,% Herbicidal activity,"HORVW; Example 7, 28 DAT, g ai/ha A-1 12.5, B-4 1066, C-11 400",90%
same,% Herbicidal activity,"HORVW; Example 8, 21 DAT, g ai/ha A-1 12.5, B-5 1066, C-12 252",80%
same,% Herbicidal activity,"HORVW; Example 9, 21 DAT, g ai/ha A-1 12.5, B-4 1066, C-12 252",80%
same,% Herbicidal activity,"HORVW; Example 10, 21 DAT, g ai/ha A-1 12.5, B-5 1066, C-4 12.5",80%
same,% Herbicidal activity,"HORVW; Example 11, 21 DAT, g ai/ha A-1 12.5, B-4 1066, C-4 12.5",80%
same,% Herbicidal activity,"AMAPA; 13 DAT, g ai/ha A-1 25, B-5 1066, growth stage 16, height 15-25 cm, water volume 187 l/ha",58%
same,% Herbicidal activity,"AMAPA; 14 DAT, g ai/ha A-1 12.5, B-5 1066, C-10 840, growth stage 12-24, height 5-30 cm, water volume 140 l/ha",73%
same,% Herbicidal activity,"AMAPA; 14 DAT, g ai/ha A-1 25, B-5 1066, C-10 840, growth stage 12-24, height 5-30 cm, water volume 140 l/ha",82%
same,% Herbicidal activity,"AMAPA; 19 DAT, g ai/ha A-1 12.5, B-5 1066, growth stage 16, height 15-25 cm, water volume 187 l/ha",40%
same,% Herbicidal activity,"AMAPA; 19 DAT, g ai/ha A-1 25, B-5 1066, growth stage 16, height 15-25 cm, water volume 187 l/ha",42%
same,% Herbicidal activity,"AMAPA; 19 DAT, g ai/ha A-1 50, B-5 1066, growth stage 16, height 15-25 cm, water volume 187 l/ha",52%
same,% Herbicidal activity,"AMAPA; 21 DAT, g ai/ha A-1 12.5, B-5 1066, growth stage 12-28, height 7-20 cm, water volume 140 l/ha",89%
same,% Herbicidal activity,"AMAPA; 21 DAT, g ai/ha A-1 50, B-5 1066, height 5-23 cm, water volume 140 l/ha",74%
same,% Herbicidal activity,GLXMA,90%
same,% Herbicidal activity,"ECHCG; 13 DAT, g ai/ha A-1 12.5, B-5 1066, C-10 840, growth stage 21-26, height 15-30 cm, water volume 187 l/ha",23%
same,% Herbicidal activity,"ECHCG; 13 DAT, g ai/ha A-1 25, B-5 1066, C-10 840, growth stage 21-26, height 15-30 cm, water volume 187 l/ha",20%
same,% Herbicidal activity,"ECHCG; 13 DAT, g ai/ha A-1 50, B-5 1066, C-10 840, growth stage 21-26, height 15-30 cm, water volume 187 l/ha",23%
same,% Herbicidal activity,"ECHCG; Example 4, 21 DAT, g ai/ha A-1 12.5, B-5 1066, growth stage 23-30, height 15-20 cm",30%
same,% Herbicidal activity,"ECHCG; Example 6, 7 DAT, g ai/ha A-1 12.5, B-5 1066, C-11 400, growth stage 23-30, height 15-20 cm",20%
same,% Herbicidal activity,"ECHCG; Example 6, 28 DAT, g ai/ha A-1 12.5, B-5 1066, C-11 400, growth stage 23-30, height 15-20 cm",20%
same,% Herbicidal activity,"ECHCG; Example 7, 28 DAT, g ai/ha A-1 12.5, B-4 1066, C-11 400, growth stage 23-30, height 15-20 cm",20%
same,% Herbicidal activity,"ECHCG; Example 8, 7 DAT, g ai/ha A-1 12.5, B-5 1066, C-12 252, growth stage 23-30, height 15-20 cm",20%
same,% Herbicidal activity,"ECHCG; Example 8, 21 DAT, g ai/ha A-1 12.5, B-5 1066, C-12 252, growth stage 23-30, height 15-20 cm",30%
same,% Herbicidal activity,"ECHCG; Example 8, 28 DAT, g ai/ha A-1 12.5, B-5 1066, C-12 252, growth stage 23-30, height 15-20 cm",20%
same,% Herbicidal activity,"ECHCG; Example 9, 28 DAT, g ai/ha A-1 12.5, B-4 1066, C-12 252, growth stage 23-30, height 15-20 cm",20%
same,% Herbicidal activity,"ECHCG; Example 10, 21 DAT, g ai/ha A-1 12.5, B-5 1066, C-4 12.5, growth stage 23-30, height 15-20 cm",30%
same,% Herbicidal activity,"DATST; Example 4, 7 DAT, g ai/ha A-1 12.5, B-5 1066",90%
same,% Herbicidal activity,"DATST; Example 6, 21 DAT, g ai/ha A-1 12.5, B-5 1066, C-11 400",90%
same,% Herbicidal activity,AMATU,88%
same,% Herbicidal activity,"ZEAMX; Example 4, 7 DAT, g ai/ha A-1 18, B-5 1066, height 50-60 cm",85%
same,% Herbicidal activity,"ZEAMX; Example 4, 21 DAT, g ai/ha A-1 12.5, B-5 1066, height 50-60 cm",80%
same,% Herbicidal activity,"ZEAMX; Example 5, 21 DAT, g ai/ha A-1 12.5, B-4 1066, height 50-60 cm",70%
same,% Herbicidal activity,"ZEAMX; Example 6, 7 DAT, g ai/ha A-1 12.5, B-5 1066, C-11 400, height 25-30 cm",40%
same,% Herbicidal activity,"ZEAMX; Example 6, 28 DAT, g ai/ha A-1 12.5, B-5 1066, C-11 400, height 50-60 cm",85%
same,% Herbicidal activity,"ZEAMX; Example 7, 28 DAT, g ai/ha A-1 12.5, B-4 1066, C-11 400, height 50-60 cm",50%
same,% Herbicidal activity,"ZEAMX; Example 8, 28 DAT, g ai/ha A-1 12.5, B-5 1066, C-12 252, height 50-60 cm",85%
same,% Herbicidal activity,"ZEAMX; Example 9, 28 DAT, g ai/ha A-1 12.5, B-4 1066, C-12 252, height 50-60 cm",50%
same,% Herbicidal activity,"ZEAMX; Example 11, 21 DAT, g ai/ha A-1 12.5, B-4 1066, C-4 12.5, height 50-60 cm",70%
same,% Herbicidal activity,SETVI,68%
